Patent US6642267B2, “Substituted 1,5-dihydropyrrol-2-one derivatives active as NMDA receptor antagonists for treatment of states of pain” (Gruenenthal GmbH, priority 1999, dated 2003)

Columns and labels:
[1] = test system: formalin-induced nociceptive reaction (licking and biting of the paw); assay: Formalin test in mice, second (late) phase; type: in vivo; conditions: male NMRI mice
Method: The studies for determination of the antinociceptive action of substituted 1,5-dihydropyrrol-2-one derivatives according to the invention were carried out in the formalin test in male albino mice (NMRI, 25-35 g, Iffa Credo, Belgium).
In the formalin test, a distinction is made between the first (early) phase (0-15 min after formalin injection) and the second (late) phase (15-60 min after formalin injection) (D. Dubuisson et al, Pain 4, 161-174 (1977)). The early phase represents a model for acute pain, as a direct reaction to the formalin injection, while the late phase is regarded as a model for persistent (chronic) pain (T. J. Coderre et al, Pain, vol. 52, pp. 259-285 (1993).
The compounds according to the invention were investigated in the second phase of the formalin test to obtain information on substance actions on chronic/inflammatory pain.
By a single subcutaneous formalin injection (20 μl, 1% aqueous solution) into the dorsal side of the right hind paw of freely mobile test animals, a nociceptive reaction was induced, which manifests itself in significant licking and biting of the paw affected.
For the investigation period in the second (late) phase of the formalin test, the nociceptive behaviour was recorded continuously by observing the animals. […] After injection of substances which have an antinociceptive action in the formalin test, the modes of behaviour described for the animals are reduced, and possibly even eliminated.
In a manner corresponding to the substance tests, in which the animals received an injection of the test substance before formalin, the vehicle, i.e. solvent (e.g. 0.9% NaCl solution), was injected into the control animals before the administration of formalin. The behaviour of the animals after administration of the substance (10 mice per substance dosage) was compared with a control group (10 mice).
On the basis of the quantification of the pain properties, the action of the substance in the formalin test was determined as a change from the control in per cent. The ED50 calculations were made by means of regression analysis. […]

[2] = molecular target: T1, glycine-binding site of the NMDA receptor channel (Rattus norvegicus, UniProt P35439); assay: Receptor binding study, displacement of (3H)-MDL 105.519 in rat brain membrane homogenates; conditions: rat cortex and hippocampus membrane homogenate; (3H)-MDL 105.519 radioligand; Ki from IC50 by Cheng-Prusoff
T1 construct: from tissue; host or cells: rat brain cortex and hippocampus membrane homogenate (male Wistar rats, Charles River)
Method: The studies for determination of the affinity of the substituted 1,5-dihydropyrrol-2-one derivatives of the general formula I for the glycine-binding site of the NMDA receptor channel were carried out on brain membrane homogenates (homogenate of the cortex and hippocampus area from the brain of male rats, Wistar strain, Charles River, WIGA GmbH, Sulzbach, Germany) by the method of Baron B. M. et al, J. Pharmacol. Exp. Ter., vol. 279, pp. 62-68 (1996).
Specifically, the cortex and hippocampus were exposed from freshly removed rat brains and homogenized in 5 mmol/l TRIS-acetate buffer, 0.32 mol/l sucrose pH 7.4 (10 ml/g fresh weight) with a Potter homogenizer (Braun, Melsungen, Germany, 10 plunger strokes at 500 revolutions per minute (rpm)), while cooling with ice, and the mixture was then centrifuged for 10 minutes at 1,000 g and 4° C. The first supernatant was collected and the sediment was homogenized again with 5 mmol/l TRIS-acetate buffer, 0.32 mol/l sucrose pH 7.4 (5 ml/g of original fresh weight of rat brain cortex and hippocampus) with the Potter homogenizer (10 plunger strokes at 500 rpm), while cooling with ice, and the mixture was centrifuged for 10 minutes at 1,000 g and 4° C. The resulting supernatant was combined with the supernatant from the first centrifugation and the mixture was centrifuged at 17,000 g for 20 minutes at 4° C. The supernatant after this centrifugation was discarded and the membrane sediment was taken up in 5 mmol/l TRIS-acetate buffer pH 8.0 (20 ml/g original fresh weight) and the mixture was homogenized with 10 plunger strokes at 500 rpm.
The membrane homogenate was then incubated for 1 hour at 4° C. and centrifuged for 30 minutes at 50,000 g and 4° C. The supernatant was discarded and the centrifuge tube with the membrane sediment was closed with Parafilm and frozen for 24 hours at −20° C. On the following day the membrane sediment was thawed and taken up in ice-cold 5 mmol/l TRIS-acetate buffer, 0.1% saponin (weight/volume) pH 7.0 (10 ml/g original fresh weight) and the mixture was homogenized with 10 plunger strokes at 500 rpm and then centrifuged for 20 minutes at 50,000 g and 4° C. The resulting supernatant was discarded and the sediment was taken up in a small volume of 5 mmol/l TRIS-acetate buffer pH 7.0 (approx. 2 ml/g original fresh weight) and the mixture was homogenized again with 10 plunger strokes at 500 rpm. After the protein content had been determined, the membrane homogenate was adjusted to a protein concentration of 10 mg protein/ml with 5 mmol/l TRIS-acetate buffer pH 7.0 and frozen in aliquots until the analysis was carried out.
For the receptor binding test, aliquots were thawed, diluted 1:10 with 5 mmol/l TRIS-acetate buffer pH 7.0 and homogenized with the Potter homogenizer with 10 plunger strokes at 500 rpm, while cooling with ice, and the mixture was centrifuged for 60 minutes at 55,000 g at 4° C. The supernatant was decanted and the membrane sediment was adjusted to a protein concentration of 1 mg/ml with ice-cold 50 mmol/l TRIS-acetate buffer pH 7.0 and the mixture was homogenized again with 10 plunger strokes at 500 rpm and kept in suspension while stirring on a magnetic stirrer in an ice-bath. In each case 100 μl of this membrane homogenate per 1 ml batch were employed in the receptor binding test (0.1 mg protein/ml in the final batch).
In the binding test, 50 mmol/l TRIS-acetate buffer pH 7.0 were employed as the buffer and […] (^3H)-MDL 105.519 (Baron B. M. at al, J. Pharmacol. Exp. Ther., vol 279, pp. 62-68 (1996)) was employed as the radioactive ligand. The content of non-specific binding was determined in the presence of 1 mmol/l glycine.
In further batches, the compounds according to the invention were added in concentration series and the displacement of the radioactive ligand from its specific binding to the glycine binding site of the NMDA receptor channel was determined. […]

Structure (SMILES)	% change with respect to the control at 10 mg/kg [1]	Ki [2]	melting point
O=NC1=C(O)C(=Cc2ccccc2)NC1=O [Example 1, 5-Benzylidene-4-hydroxy-3-nitroso-1,5-dihydro-pyrrol-2-one]	63.9%		
COC1=C(N=O)C(=O)NC1=Cc1ccccc1 [Example 2, 5-Benzylidene-4-methoxy-3-nitroso-1,5-dihydropyrrol-2-one]	36.3%		
O=NC1=C(NCc2ccccc2)C(=Cc2ccccc2)NC1=O [Example 3, 4-Benzylamino-5-benzylidene-3-nitroso-1,5-dihydropyrrol-2-one]	47.6%	68 µM	
O=NC1=C(Nc2ccccc2)C(=Cc2ccccc2)NC1=O [Example 4, 5-Benzylidene-3-nitroso-4-phenylamino-1,5-dihydropyrrol-2-one]		72 µM	
CNC1=C(N=O)C(=O)NC1=Cc1ccccc1 [Example 5, 5-Benzylidene-4-methylamino-3-nitroso-1,5-dihydropyrrol-2-one]		60 µM	
NC1=C(N=O)C(=O)NC1=Cc1ccccc1 [Example 6, 4-Amino-5-benzylidene-3-nitroso-1,5-dihydropyrrol-2-one]		70 µM	
O=C1NC(=Cc2ccccc2)C(Nc2ccccc2)=C1[N+](=O)[O-] [Example 8, 5-Benzylidene-3-nitro-4-phenylamino-1,5-dihydropyrrol-2-one]		9 µM	
O=C1NC(=Cc2ccccc2)C(NCc2ccccc2)=C1[N+](=O)[O-] [Example 9, 4-Benzylamino-5-benzylidene-3-nitro-1,5-dihydropyrrol-2-one]		5 µM	218 °C
CNC1=C([N+](=O)[O-])C(=O)NC1=Cc1ccccc1 [Example 10, 5-Benzylidene-4-methylamino-3-nitro-1,5-dihydropyrrol-2-one]		3 µM	238 °C
NC1=C([N+](=O)[O-])C(=O)NC1=Cc1ccccc1 [Example 11, 4-Amino-5-benzylidene-3-nitro-1,5-dihydropyrrol-2-one]		6 µM	> 260 °C
